Reference: US20130165520A1, “Hybrid Molecule Having Mixed Retinoic Acid Receptor Agonism and Histone Deacetylase Inhibitory Properties” (priority 2010, published 2013)

Experiments:
purified human HDAC6 = purified human HDAC6 (Homo sapiens, UniProt Q9UBN7); experiment: Standard fluorescence HDAC assay; format: biochemical; details: purified human enzyme, read-out: IC50 against HDAC6
MDA-MB-231/ATCC = MDA-MB-231/ATCC (Breast); 48 h
ACHN = experiment: cells; details: Homo sapiens, 48 h
SN12C = SN12C (Renal); 48 h
RARα = target: T1, RARα (Homo sapiens, UniProt P10276); experiment: BRET assay of agonist-dependent coactivator recruitment in transfected HEK293 cells; format: cell-based
T1 sequence (P10276 1-462): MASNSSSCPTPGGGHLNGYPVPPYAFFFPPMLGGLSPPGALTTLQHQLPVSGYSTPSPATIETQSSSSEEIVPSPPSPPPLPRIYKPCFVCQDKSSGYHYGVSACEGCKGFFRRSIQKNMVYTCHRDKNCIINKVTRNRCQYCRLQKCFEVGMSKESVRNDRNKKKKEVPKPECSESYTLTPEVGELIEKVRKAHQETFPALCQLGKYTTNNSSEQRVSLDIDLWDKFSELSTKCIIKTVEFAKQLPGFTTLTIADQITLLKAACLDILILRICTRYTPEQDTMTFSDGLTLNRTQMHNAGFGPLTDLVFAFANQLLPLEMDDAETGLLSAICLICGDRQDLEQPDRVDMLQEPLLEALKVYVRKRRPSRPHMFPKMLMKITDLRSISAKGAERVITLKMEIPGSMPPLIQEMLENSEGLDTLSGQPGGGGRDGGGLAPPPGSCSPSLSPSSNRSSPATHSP
Procedure: Hybrid 3 was prepared by treatment of the methyl ester of TTNN with excess hydroxylamine under alkaline conditions. The effects of hybrid 3 on RAR were initially assessed using a bioluminescence resonance energy transfer (BRET) assay. The BRET assay monitors agonist-dependent recruitment of coactivators to RARs in transfected HEK293 cells, chosen because of their high degree of transfectability. Energy transfer between luciferase (fused to RARα) and eGFP (fused to the LXXLL coactivator motif) occurs only when these moieties are juxtaposed by the RAR-LXXLL interaction, and can be detected by the emission of green fluorescence.
Cell transfection and BRET assays: HEK293 cells were grown to confluence, trypsinized and plated at a density of 500 k cells per well (12-well plates) in DMEM supplemented with 10% charcoal treated FBS (FBS-T). The following day, cells were transfected with PEI using 0.1 μg of RAR-RLuc vector and 1 μg of LXXLL-eGFP vector. 48 hours post-transfection, cells were treated with retinoids for 2 hours before taking BRET measurements as described previously.

SNB-19 [1] = experiment: cells; details: Homo sapiens, SNB-19, 48 h
HCT-116 = HCT-116 (Colon); 48 h
HCT-15 [2] = details: HCT-15 (Colon); 48 h
OVCAR-5 = details: 48 h
SF-295 = SF-295 (CNS); 48 h
UACC-62 = UACC-62 (Melanoma); 48 h
HCT-15 [3] = experiment: cells; details: Homo sapiens, HCT-15, 48 h
SNB-19 [4] = details: SNB-19 (CNS); 48 h
NCI-H23 = NCI-H23 (Non-Small cell lung cancer); 48 h
HS578T = HS578T (Breast); 48 h
PC-3 = experiment: cells; details: Homo sapiens, PC-3, 48 h
CCRF-CEM = CCRF-CEM (Leukemia); 48 h
NCI-H460 = experiment: cells; details: Homo sapiens, NCI-H460, 48 h

Sequence of purified human HDAC6 (Q9UBN7 whole entry): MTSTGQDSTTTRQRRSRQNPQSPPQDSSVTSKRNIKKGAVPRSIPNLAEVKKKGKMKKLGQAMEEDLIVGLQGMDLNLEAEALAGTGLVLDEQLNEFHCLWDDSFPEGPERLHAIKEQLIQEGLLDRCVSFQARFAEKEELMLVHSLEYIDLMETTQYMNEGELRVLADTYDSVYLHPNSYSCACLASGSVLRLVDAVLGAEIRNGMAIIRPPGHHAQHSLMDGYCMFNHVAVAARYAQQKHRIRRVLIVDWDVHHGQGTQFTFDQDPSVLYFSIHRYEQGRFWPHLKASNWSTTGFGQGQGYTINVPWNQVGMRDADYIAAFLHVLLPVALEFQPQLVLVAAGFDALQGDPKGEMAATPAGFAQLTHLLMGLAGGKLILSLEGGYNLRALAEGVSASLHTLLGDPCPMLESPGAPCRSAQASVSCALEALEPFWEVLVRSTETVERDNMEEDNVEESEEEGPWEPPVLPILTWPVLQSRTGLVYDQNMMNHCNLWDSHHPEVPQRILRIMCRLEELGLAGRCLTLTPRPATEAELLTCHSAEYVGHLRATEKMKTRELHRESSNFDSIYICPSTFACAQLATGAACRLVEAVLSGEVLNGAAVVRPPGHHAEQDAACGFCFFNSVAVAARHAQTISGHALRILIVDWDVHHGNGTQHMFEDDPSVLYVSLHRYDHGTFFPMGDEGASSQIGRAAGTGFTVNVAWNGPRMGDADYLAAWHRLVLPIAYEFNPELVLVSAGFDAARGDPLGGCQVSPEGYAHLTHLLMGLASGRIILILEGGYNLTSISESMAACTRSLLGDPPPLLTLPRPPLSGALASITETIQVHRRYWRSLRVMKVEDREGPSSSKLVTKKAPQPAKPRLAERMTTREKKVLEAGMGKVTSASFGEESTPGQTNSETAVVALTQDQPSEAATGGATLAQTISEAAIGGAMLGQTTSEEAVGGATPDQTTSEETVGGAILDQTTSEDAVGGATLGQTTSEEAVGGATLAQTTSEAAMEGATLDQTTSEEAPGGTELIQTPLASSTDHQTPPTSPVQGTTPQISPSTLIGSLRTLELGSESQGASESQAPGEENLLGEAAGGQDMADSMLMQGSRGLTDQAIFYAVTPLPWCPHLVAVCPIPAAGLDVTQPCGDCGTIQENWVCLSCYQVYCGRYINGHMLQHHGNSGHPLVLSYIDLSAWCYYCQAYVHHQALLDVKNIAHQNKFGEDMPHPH

CC1(C)CCC(C)(C)c2cc(-c3ccc4cc(C(=O)NO)ccc4c3)ccc21 [hybrid 3]
IC50 (purified human HDAC6): 0.148 µM | TGI (MDA-MB-231/ATCC): 3.59 µM | GI50 (ACHN): 0.393 µM | CC50 (ACHN; read-out: LC50): 5.09 µM | TGI (SN12C): 2.37 µM | RARα agonism (BRET signal) (RARα; 1 μM, 2 hours treatment): agonists of RARα | EC50 (RARα; FIG. 2b, read-out: IC50 in inducing RARα (BRET dose-response)): 1.02 µM | GI50 (SNB-19 [1]): 1.09 µM | CC50 (SNB-19 [1]; read-out: LC50): 5.09 µM | TGI (HCT-116): 1.5 µM | TGI (HCT-15 [2]): 2.03 µM | TGI (OVCAR-5): 19.5 µM | TGI (SF-295): 1.77 µM | TGI (UACC-62): 1.86 µM | GI50 (HCT-15 [3]): 0.381 µM | CC50 (HCT-15 [3]; read-out: LC50): 9.38 µM | TGI (SNB-19 [4]): 2.36 µM | TGI (NCI-H23): 2.43 µM | TGI (HS578T): 11.8 µM | GI50 (PC-3): 1.14 µM | CC50 (PC-3; read-out: LC50): 21.5 µM | TGI (CCRF-CEM): 1.95 µM | GI50 (NCI-H460): 0.34 µM | CC50 (NCI-H460; read-out: LC50): 4.04 µM
